Here are results for 5 compounds from patent publication US11185511B2, “Antifungal topical composition and methods of treatment” (priority 2013, dated 2021).

SMILES strings stand for the structures. “Also recorded” adds a separate entry of the source. Read-outs that look alike come from different tables or passages of the source.

Data set [1] has as its system Saccharomyces cerevisiae NOD 24. Kind of data set: Chequerboard titration test (MIC, FICI) against Saccharomyces cerevisiae NOD 24. In kind it is cell-based. The settings on record: for Fold reduction in MIC of drug when combined with PHMB: S cerevisiae NOD 24, FIG. 2; for MIC when combined with PHMB: S cerevisiae NOD 24, MIC of the antifungal in combination with PHMB; for FICI / Type of interaction: S cerevisiae NOD 24, antifungal combined with PHMB; for MIC: Saccharomyces cerevisiae, NOD24. The method, then:
(§1) In vitro susceptibility of a clinical isolate of Candida albicans, Saccharomyces cerevisiae NOD 24 and S cerevisiae EBY 100 to the combination of the antifungal agent and PHMB was assessed using chequerboard assay. Interaction between the drugs and PHMB, formation of nanoparticles and cellular uptake was also assessed.
(§2) Yeast inoculum was prepared by picking five colonies from 24 hrs grown culture in SGA and mixing in RPMI 1640 with MOPS. The optical density of the mixture was adjusted spectrophotometrically to 1 which is equivalent to 3×10^7 Colony Forming Units of yeast/mi. This suspension was further diluted in RPMI 1640 with MOPS to give final inoculum size of 0.5×10^4 CFU/ml.
(§3) Chequer board titration test was carried out in sterile 96-well plates as per CLSI recommended standard procedure to test the antifungal effect of drugs alone and in combination with PHMB. RPMI 1640 medium buffered with MOPS was used as test medium. Dilutions of drug was prepared the test medium if the stock was made in DMSO and in case of stocks made in water further dilutions of drug was in water itself. Tested concentrations were: nystatin 0.000039 mg/ml to 0.02 mg/ml, amphotericin B 0.032 mg/ml to 0.0000625 mg/ml, berberine 0.01 mg/ml to 0.00002 mg/ml, ketoconazole 0.032 mg/ml to 0.0000625 mg/ml and terbinafine 0.16 mg/ml to 0.00031 mg/ml. Growth control and sterility control was present in all plates. All the plates were prepared in triplicates.
(§4) The plates were sealed with paraffin foil to prevent evaporation and kept at 37° C. for C albicans and 30° C. for S cererevisiae. MIC was recorded visually, aided with Powerwave 340 universal microplate spectrophotometer (Biotek) after 24 hours for C albicans and S cerevisiae NOD 24. […] MIC was defined as the lowest concentration at which there is no visible growth. FICI was used to analyse the drug interactions in vitro and was calculated using the equation given below: […]

Data set [2] concerns Saccharomyces cerevisiae EBY 100. As to the kind of experiment: Chequerboard titration test (MIC, FICI) against Saccharomyces cerevisiae EBY 100. The data set is classed as cell-based. The settings on record: for Fold reduction in MIC of drug when combined with PHMB: S cerevisiae EBY100, FIG. 1; for MIC when combined with PHMB: S cerevisiae EBY 100, MIC of the antifungal in combination with PHMB; for FICI / Type of interaction: S cerevisiae EBY 100, antifungal combined with PHMB; for MIC: Saccharomyces cerevisiae. The method, then: as §1, §2, §3, §4

Data set [3] deals with Candida albicans. As to the kind of experiment: Chequerboard titration test (MIC, FICI) against clinical isolate of Candida albicans. The data set is classed as cell-based. To be noted: for Fold reduction in MIC of drug when combined with PHMB: FIG. 3; for MIC when combined with PHMB: MIC of the antifungal in combination with PHMB; for FICI / Type of interaction: antifungal combined with PHMB. The method, then:
as §1, §2, §3, §4

Data set [4] has as its system Candida albicans, Saccharomyces cerevisiae NOD 24 and S cerevisiae EBY 100. To be noted: chequerboard assay, organism not specified. The method, then:
as §1, §3, §4
Wilcoxon signed rank test was used to statistically analyse changes in MICs of antifungals when combined with PHMB. P value less than 0.05 was considered significant. Statistical analysis was done using SPPSS version 2.0 software.

Data set [5] can be described thus: Particle size by dynamic light scattering (DLS). In kind it is physicochemical. To be noted: for Average size of particles (DLS): combined with PHMB in the ratio 1:3, PBS. The method, then:
Dynamic light scattering (DLS) was used to estimate size of complexes formed. It is based on the principle that by measuring scattered light from particles in motion their size can be determined. […] Particle size was determined using Zetasizer S (Malvern instruments, UK).

[6] abbreviates: S cerevisiae NOD 24, PHMB concentration when combined with the labelled drug, read-out: MIC of PHMB with antifungals.
Setting [7] is: S cerevisiae NOD 24, RPMI 1640 with MOPS, 30° C., 24 hours, read-out: MIC of antifungals alone.
Setting [8] is: PHMB concentration when combined with the labelled drug, read-out: MIC of PHMB with antifungals.
The mark [9] stands for this setting: RPMI 1640 with MOPS, 37° C., 24 hours, read-out: MIC of antifungals alone.
Where [10] appears, read: combined with PHMB in the ratio 1:3.
Where [11] appears, read: S cerevisiae NOD 24, PHMB concentration when combined with the labelled drug.
The mark [12] stands for this setting: S cerevisiae NOD 24, RPMI 1640 with MOPS, 30° C., 24 hours.
[13] abbreviates: S cerevisiae EBY 100, PHMB concentration when combined with the labelled drug.
Where [14] appears, read: S cerevisiae EBY 100, RPMI 1640 with MOPS, 30° C., 48 hours.
Where [15] appears, read: PHMB concentration when combined with the labelled drug.
Setting [16] is: RPMI 1640 with MOPS, 37° C., 24 hours.
Where [17] appears, read: EBY100, S cerevisiae EBY 100, RPMI 1640 with MOPS, 30° C., 48 hours, read-out: MIC of antifungals alone.

On to `CC(=O)N1CCN(c2ccc(OCC3COC(Cn4ccnc4)(c4ccc(Cl)cc4Cl)O3)cc2)CC1` (stereo not shown) [Ketoconazole], for which the “Fold reduction in MIC of drug when combined with PHMB” value (“Fold reduction in MIC of drug” below) in data set [1], in data set [2] and in data set [3] was 4 fold each time. Also, the “MIC when combined with PHMB” value worked out at 1 µg/mL in data set [1] (30° C., 24 hours); 0.31 µg/mL in data set [2] (30° C., 48 hours); 1 µg/mL in data set [3] (37° C., 24 hours). Also, the FICI in data set [1] was determined as 0.5; in data set [2], 0.263; in data set [3], 0.281. Besides, the Type of interaction entry in data set [1], in data set [2] and in data set [3] was “Synergistic (FICI≤0.5 is ‘synergistic effect’)” throughout. The minimum inhibitory concentration (MIC) in data set [1] (setting [6]) is 0.5 µg/mL; in data set [1] (setting [7]) it was 16 µg/mL; in data set [2] (EBY100, 48 h, read-out: MIC of antifungals alone), 1.25 µg/mL; in data set [3] (setting [8]), 0.062 µg/mL; in data set [3] (setting [9]), 4 µg/mL. The “Interaction with PHMB (synergy), in words” value (shortened to “Interaction with PHMB”) in data set [4] is “Strong synergism; also recorded: Synergistic effect”. For the same compound, the Polydispersity index in data set [5] (combined with PHMB 1:3) is recorded as greater than 1. For the same compound, the “Share of particles of size less than 10 nm” value in data set [5] (combined with PHMB 1:3) is on record as “less than 10%”. For the same compound, the “Nanoparticles with PHMB observed or not (DLS)” value in data set [5] (setting [10]) is listed as “Nanoparticles were observed”. In addition, in data set [5] (setting [10]), the “Peak 1 Average size (DLS)” value stood at 1.15±0.017. Moreover, the “Peak 2 Average size (DLS)” value in data set [5] (setting [10]) is 5.88±0.71. The “Peak 3 Average size (DLS)” value in data set [5] (setting [10]) is listed as 498.9±65.2.
Take `C[C@@H]1[C@H](O)[C@@H](C)/C=C/C=C/CC/C=C/C=C/C=C/C=C/C(O[C@H]2O[C@H](C)[C@@H](O)[C@H](N)[C@@H]2O)CC2O[C@](O)(CC(O)C(O)CCC(O)CC(O)CC(O)CC(=O)O[C@H]1C)CC(O)C2C(=O)O` (stereo partly shown) [Nystatin]: the “Fold reduction in MIC of drug” value in data set [1] is listed as 4 fold; in data set [2], 2 fold; in data set [3], 2 fold. The “MIC when combined with PHMB” value in data set [1] (30° C., 24 hours) came out at 0.625 µg/mL; in data set [2] (30° C., 48 hours), 2.5 µg/mL; in data set [3] (37° C., 24 hours), 2.5 µg/mL. Also, the “MIC of PHMB with antifungals” value in data set [1] (setting [11]) came to 0.5 µg/mL; in data set [2] (setting [13]), 0.062 µg/mL; in data set [3] (setting [15]), 0.5 µg/mL. The “MIC of antifungals alone” value is 2.5 µg/mL in data set [1] (setting [12]), 5 µg/mL in data set [2] (setting [14]) and 5 µg/mL in data set [3] (setting [16]). Also, the results for the FICI in data set [1], in data set [2] and in data set [3] were 0.75, 0.53 and 1, respectively. Also, the Type of interaction result in data set [1], in data set [2] and in data set [3] was “No interaction (>0.5 but ≤4 is ‘no interaction’)” in each case. Also, in data set [5] (setting [10]), the “Nanoparticles with PHMB observed or not (DLS)” value is recorded as “Nanoparticles were not detected”.
In the case of `C[C@@H]1[C@H](O)[C@@H](C)/C=C/C=C/C=C/C=C/C=C/C=C/C=C/[C@H](O[C@@H]2O[C@H](C)[C@@H](O)[C@H](N)[C@@H]2O)C[C@@H]2O[C@](O)(C[C@@H](O)C[C@@H](O)[C@H](O)CC[C@@H](O)C[C@@H](O)CC(=O)O[C@H]1C)C[C@H](O)[C@H]2C(=O)O` [Amphotericin B], the “Fold reduction in MIC of drug” value in data set [1] is recorded as 16 fold; in data set [2], 4 fold; in data set [3], 2 fold. Further, the “MIC when combined with PHMB” value in data set [1] (30° C., 24 hours) is 0.25 µg/mL; in data set [2] (30° C., 48 hours), 4 µg/mL; in data set [3] (37° C., 24 hours) it was 0.5 µg/mL. In addition, the “MIC of PHMB with antifungals” value in data set [1] (setting [11]) stood at 0.5 µg/mL; in data set [2] (setting [13]), 0.5 µg/mL; in data set [3] (setting [15]), 0.031 µg/mL. In addition, the “MIC of antifungals alone” value in data set [1] (setting [12]) is 4 µg/mL; in data set [2] (setting [14]), 16 µg/mL; in data set [3] (setting [16]), 1 µg/mL. Moreover, the FICI in data set [1] is recorded as 0.56; in data set [2], 0.5; in data set [3] it was 0.53. Moreover, the Type of interaction result is recorded as “No interaction (>0.5 but ≤4 is ‘no interaction’)” in data set [1], “Synergistic (FICI≤0.5 is ‘synergistic effect’)” in data set [2], “synergy” in data set [2] (listed as amphotericin B) and “No interaction (>0.5 but ≤4 is ‘no interaction’)” in data set [3]. In data set [4], the “Interaction with PHMB” value is on record as “Synergistic effect”. In addition, the “Nanoparticles with PHMB observed or not (DLS)” value in data set [5] (setting [10]) is “Nanoparticles were not detected”.
On to `CN(C/C=C/C#CC(C)(C)C)Cc1cccc2ccccc12` [Terbinafine], for which the “Fold reduction in MIC of drug” value was 16 fold in data set [1], 8 fold in data set [2] and 4 fold in data set [3]. The “MIC when combined with PHMB” value in data set [1] (30° C., 24 hours) came out at 2.5 µg/mL; in data set [2] (30° C., 48 hours), 2.5 µg/mL; in data set [3] (37° C., 24 hours) it was 1 µg/mL. The FICI is listed as 0.312 in data set [1], 0.14 in data set [2] and 0.5 in data set [3]. Moreover, the Type of interaction entry in data set [1], in data set [2] and in data set [3] was “Synergistic (FICI≤0.5 is ‘synergistic effect’)” in each case. In addition, the MIC was 0.062 µg/mL in data set [1] (setting [6]); 4 µg/mL in data set [1] (setting [7]); 20 µg/mL in data set [2] (setting [17]); 0.5 µg/mL in data set [3] (setting [8]); 4 µg/mL in data set [3] (setting [9]). In data set [4], the “Interaction with PHMB” value was “Strong synergism; also recorded: Synergistic effect”.
With `COc1ccc2cc3[n+](cc2c1OC)CCc1cc2c(cc1-3)OCO2` [Berberine], the “Fold reduction in MIC of drug” value in data set [1] is given as 16 fold; in data set [2] it was 2 fold; in data set [3], 2 fold. The “MIC when combined with PHMB” value is 0.56 µg/mL in data set [1] (30° C., 24 hours); 25 µg/mL in data set [2] (30° C., 48 hours); 31.25 µg/mL in data set [3] (37° C., 24 hours). The FICI in data set [1] stood at 0.56; in data set [2], 0.75; in data set [3] it was 0.53. For the same compound, the Type of interaction entry in data set [1], in data set [2] and in data set [3] was “No interaction (>0.5 but ≤4 is ‘no interaction’)” in each case. In addition, the MIC in data set [1] (setting [6]) was found to be 0.5 µg/mL; in data set [1] (setting [7]), 50 µg/mL; in data set [2] (EBY100, S cerevisiae EBY 100, PHMB concentration when combined with the labelled drug, read-out: MIC of PHMB with antifungals), 0.5 µg/mL; in data set [2] (setting [17]), 50 µg/mL; in data set [3] (setting [8]), 0.031 µg/mL. Moreover, the “Share of particles around 22.2±1.5 nm” value in data set [5] (combined with PHMB 1:3) worked out at 64.5%. Further, the “Nanoparticles with PHMB observed or not (DLS)” value in data set [5] (setting [10]) is “Nanoparticles were observed”. The figures for the “Average size of particles (DLS)” value in data set [5] and in data set [5] (listed as berberine) were 22.22±1.591 nm and “around 22.2±1.5 nm”, respectively.
